For nine molecules, IC50 results are on record in ChEMBL document CHEMBL1123021, “3-Amino-beta-carboline derivatives and the benzodiazepine receptor. Synthesis of a selective antagonist of the sedative action of diazepam” (J Med Chem, 1985).

Usually IC50 stands for the concentration that inhibits the measured activity by half. High values mean a need for much substance, low ones inhibition by little substance.

The target of this assay is GABA-A receptor; anion channel. Kind of assay: Inhibition of [3H]- flunitrazepam binding to GABA-A Benzodiazepine receptor of rat cerebral cortex membranes. Type of assay: cell membranes, Membrane.

Consider `CS(=O)(=O)Nc1cc2c3ccccc3nc-2c[nH]1`, for which the IC50 is 62 µM.

As to `COC(=O)Nc1cc2c3ccccc3nc-2c[nH]1`, the concentration for half-maximal inhibition (IC50) turned out to be 0.071 µM.

Molecule `O=C(Nc1cc2c3ccccc3nc-2c[nH]1)C(F)(F)F` registered an IC50 of 6.3 µM. Against the preceding molecule, the IC50 is about 89-fold higher.

The molecule `CC(=O)Nc1cc2c3ccccc3nc-2c[nH]1` showed an IC50 of 4 µM.

In the case of `Nc1cc2c(cn1)[nH]c1ccccc12`, the IC50 worked out at 25 µM. Compared with the last molecule, the IC50 is about 6.2-fold higher.

For the molecule `O=CNc1cc2c3ccccc3nc-2c[nH]1`, the IC50 is 4.7 µM.

The molecule `CCOC(=O)Nc1cc2c3ccccc3nc-2c[nH]1` returned an IC50 of 0.08 µM.

`CCNc1cc2c3ccccc3nc-2c[nH]1` had an IC50 of 0.46 µM.

In the case of `CCOC(=O)c1cc2c(cn1)[nH]c1ccccc12`, the 50% inhibitory concentration (IC50) stood at 0.002 µM.
